# From US9383374B2, “Methods to determine susceptibility to treatment with leukotriene modifiers” (NATIONAL JEWISH HEALTH, priority 2008, dated 2016)
# System: children with physician-diagnosed asthma
# Experiment: Randomized placebo-controlled study of daily montelukast on LTE4-related albuterol usage in schoolchildren with asthma
# Type: in vivo, human
# Settings: for Change in Albuterol Usage Per IQR Increase in LTE4, Relative difference (treatment vs baseline interval) / Change in Albuterol Usage Per IQR Increase in LTE4, Treatment Interval: montelukast group
# Source text: Twenty-eight children, aged 6 to 15, who had physician-diagnosed asthma were followed over a 5-month period (Nov. 15, 2005 to Apr. 15, 2006). Children were excluded from the study if they were already receiving montelukast. Many of the children are classified as urban poor. The children attended the same school.
# After an initial two and a half month period (baseline interval), children were randomized to receive daily montelukast (montelukast group) or placebo (placebo group) for the final two and a half months of the study (treatment interval). Study medication and placebo were administered in a single-blinded fashion by school nurses or study personnel on school days and by parents (who were blinded) on non-school-days. Children were otherwise followed by their regular physicians who were free to adjust medications as needed (these medication changes were recorded and controlled for in the statistical analysis).
# Each child was given a Doser (Meditrak, Hudson, M S) for use at school throughout the 5-month period. The Doser is an electronic counter that records the total number of (albuterol) activations in each 24-hour period. At study initiation, parents completed a questionnaire describing baseline demographic and asthma severity characteristics. School nurses recorded all other medication changes during the study.
# Sixteen urine samples were collected from each child on 8 consecutive schooldays during the baseline interval and 8 consecutive schooldays during the treatment interval. Urine was collected at approximately the same time each day (10:00 AM to 12:00 PM). Collection was staggered in groups of 10 children so that urine monitoring occurred daily throughout the 5 months of the study.
# Baseline model: A Poisson regression model employing generalized estimating equations (GEE) (Dobson A J. An introduction to generalized linear models, 2nd edition, Chapman & Hall/CRC 2001) was used to determine the strength of association between albuterol medication use (modeled as the outcome) and LTE4 levels, at various lag times (in days) between the variables. An indicator for Friday (=1 if response was on Friday, =0 otherwise) was included because children had regular exercise activities from Monday through Thursday, but not on Friday. […] The same day and up to a 4-day lag of LTE4 was tested for, in separate models.
# Experiment model: Daily albuterol use was modeled as a function of LTE4, group (montelukast and placebo), interval (baseline and treatment), and all interactions of these variables, using Poisson regression and employing GEE. Using the baseline model as a guide, 3-day moving averages of LTE4 (days 0-2 and 1-3 prior to current day) were used. Other covariates in the model included daily indicators for Friday, prednisone use, special exercise days during the treatment interval, and interval-level indictors of ICS and LABA use.
# Effect modifier models: These models were fit for the subjects randomized to montelukast only. The model had LTE4, interval, the effect modifier of interest, and all interactions of these variables. Otherwise, the model was similar to the ‘Experiment model’ described above. The effect modifiers tested included gender, ICS and LABA use, mean LTE4, mean FENO, height, mean cotinine, and mean LTE4 to FENO ratio.
# The interquartile range (IQR) for LTE4 was used to standardize slope estimates; this statistic was determined by first calculating the IQR for each subject, and then taking the median across subjects. For all models described above, a first order autoregressive working covariance structure was used to model repeated measures within subjects over time. SAS software, version 9.1 (PROC GENMOD) was used to fit the data to the models described above. […]
# [1] = Group 1 meds: No Meds or ICS, 1-3 day moving average
# [2] = Group 2 meds: ICS and LABA, 1-3 day moving average
# [3] = LTE4:FENO Ratio 1st quartile estimate
# [4] = LTE4:FENO Ratio 3rd quartile estimate
# [5] = mean FENO 1st quartile estimate
# [6] = mean FENO 3rd quartile estimate
# [7] = mean LTE4 1st quartile estimate
# [8] = mean LTE4 3rd quartile estimate
# [9] = mean urine Cotinine 1st quartile estimate
# [10] = mean urine Cotinine 3rd quartile estimate
compound,measurement,setting,value
"CC(C)(O)c1ccccc1CC[C@@H](SCC1(CC(=O)O)CC1)c1cccc(/C=C/c2ccc3ccc(Cl)cc3n2)c1 [Montelukast, montelukast]","Change in Albuterol Usage per IQR of LTE4, Relative Diff.",Female (Group 2 gender),−26.7%
same,"Change in Albuterol Usage per IQR of LTE4, Treatment interval",Female (Group 2 gender),−11.5%
same,"Change in Albuterol Usage per IQR of LTE4, Relative Diff.",[1],−22.0%
same,"Change in Albuterol Usage per IQR of LTE4, Treatment interval",[1],−10.5%
same,"Change in Albuterol Usage per IQR of LTE4, Relative Diff.",[2],−6.6%
same,"Change in Albuterol Usage per IQR of LTE4, Treatment interval",[2],−1.0%
same,"Change in Albuterol Usage per IQR of LTE4, Relative Diff.",Height 1st quartile estimate,−16.4%
same,"Change in Albuterol Usage per IQR of LTE4, Treatment interval",Height 1st quartile estimate,−2.4%
same,"Change in Albuterol Usage per IQR of LTE4, Relative Diff.",Height 3rd quartile estimate,−16.4%
same,"Change in Albuterol Usage per IQR of LTE4, Treatment interval",Height 3rd quartile estimate,−0.3%
same,"Change in Albuterol Usage per IQR of LTE4, Relative Diff.",[3],1.8%
same,"Change in Albuterol Usage per IQR of LTE4, Treatment interval",[3],−0.8%
same,"Change in Albuterol Usage per IQR of LTE4, Relative Diff.",[4],−17.6%
same,"Change in Albuterol Usage per IQR of LTE4, Treatment interval",[4],−1.3%
same,"Change in Albuterol Usage per IQR of LTE4, Relative Diff.",Male (Group 1 gender),−7.9%
same,"Change in Albuterol Usage per IQR of LTE4, Treatment interval",Male (Group 1 gender),−0.5%
same,"Change in Albuterol Usage per IQR of LTE4, Relative Diff.",[5],−10.4%
same,"Change in Albuterol Usage per IQR of LTE4, Treatment interval",[5],−0.1%
same,"Change in Albuterol Usage per IQR of LTE4, Relative Diff.",[6],−0.6%
same,"Change in Albuterol Usage per IQR of LTE4, Treatment interval",[6],−6.4%
same,"Change in Albuterol Usage per IQR of LTE4, Relative Diff.",[7],−13.4%
same,"Change in Albuterol Usage per IQR of LTE4, Treatment interval",[7],−1.5%
same,"Change in Albuterol Usage per IQR of LTE4, Relative Diff.",[8],−10.9%
same,"Change in Albuterol Usage per IQR of LTE4, Treatment interval",[8],−4.8%
same,"Change in Albuterol Usage per IQR of LTE4, Relative Diff.",[9],−8.2%
same,"Change in Albuterol Usage per IQR of LTE4, Treatment interval",[9],−4.0%
same,"Change in Albuterol Usage per IQR of LTE4, Relative Diff.",[10],−6.6%
same,"Change in Albuterol Usage per IQR of LTE4, Treatment interval",[10],−3.6%
same,"Change in Albuterol Usage Per IQR Increase in LTE4, Relative difference (treatment vs baseline interval)",Lag 0-2,−10.8%
same,"Change in Albuterol Usage Per IQR Increase in LTE4, Treatment Interval",Lag 0-2 (Day 0-2 moving average of LTE4),−3.0%
same,"Change in Albuterol Usage Per IQR Increase in LTE4, Relative difference (treatment vs baseline interval)",Lag 1-3,−13.0%
same,"Change in Albuterol Usage Per IQR Increase in LTE4, Treatment Interval",Lag 1-3 (Day 1-3 moving average of LTE4),−3.2%
